Test results: ChEMBL document CHEMBL1201861, “Genomics of Drug Sensitity in Cancer screening data, Wellcome Trust Sanger Institute”

Assays:
[1] = system: HT-1376; test: cells; assay type: functional, cell-based; conditions: Homo sapiens
Description: SANGER: Inhibition of human HT-1376 cell growth in a cell viability assay.

[2] = system: Huh-7; test: cells; assay type: functional, cell-based; conditions: Homo sapiens;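 note: HuH-7 cell growth inhibition, read out with a cell viability assay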
Description: SANGER: Inhibition of human HuH-7 cell growth in a cell viability assay.

[3] = system: DK-MG; test: cells; assay type: functional, cell-based; conditions: Homo sapiens;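 note: growth inhibition of DK-MG cells, read out with a cell viability assay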
Description: SANGER: Inhibition of human DK-MG cell growth in a cell viability assay.

[4] = system: IGROV-1; test: cells; assay type: functional, cell-based; conditions: Homo sapiens;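 note: reduction of IGROV-1 cell growth, read out with a viability assay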
Description: SANGER: Inhibition of human IGROV-1 cell growth in a cell viability assay.

[5] = system: BT-20; test: cells; assay type: functional, cell-based; conditions: Homo sapiens;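 note: cell viability assay measuring suppression of growth in human BT-20 cells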
Description: SANGER: Inhibition of human BT-20 cell growth in a cell viability assay.

[6] = system: YKG-1; test: cells; assay type: functional, cell-based; conditions: Homo sapiens;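 note: cell growth inhibition, read out with a viability assay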
Description: SANGER: Inhibition of human YKG-1 cell growth in a cell viability assay.

[7] = system: CHP-212; test: cells; assay type: functional, cell-based; conditions: Homo sapiens
Description: SANGER: Inhibition of human CHP-212 cell growth in a cell viability assay.

[8] = system: CHL-1; test: cells; assay type: functional, cell-based; conditions: Homo sapiens;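 note: cell growth inhibition, read out with a cell viability assay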
Description: SANGER: Inhibition of human CHL-1 cell growth in a cell viability assay.

[9] = system: UACC-62; test: cells; assay type: functional, cell-based; conditions: Homo sapiens;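 note: growth inhibition of human UACC-62 cells, read out by a cell viability assay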
Description: SANGER: Inhibition of human UACC-62 cell growth in a cell viability assay.

[10] = system: CAL-120; test: cells; assay type: functional, cell-based; conditions: Homo sapiens;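 note: cell growth inhibition, read out as cell viability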
Description: SANGER: Inhibition of human CAL-120 cell growth in a cell viability assay.

[11] = system: SJRH30; test: cells; assay type: functional, cell-based; conditions: Homo sapiens;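 note: growth inhibition of human SJRH30 cells, read out with a cell viability assay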
Description: SANGER: Inhibition of human SJRH30 cell growth in a cell viability assay.

[12] = system: NCI-H1573; test: cells; assay type: functional, cell-based; conditions: Homo sapiens;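 note: growth inhibition of NCI-H1573 cells, read out with a cell viability assay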
Description: SANGER: Inhibition of human NCI-H1573 cell growth in a cell viability assay.

[13] = system: BFTC-909; test: cells; assay type: functional, cell-based; conditions: Homo sapiens
Description: SANGER: Inhibition of human BFTC-909 cell growth in a cell viability assay.

[14] = system: GAMG; test: cells; assay type: functional, cell-based; conditions: Homo sapiens;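 note: cell growth inhibition measured by a viability assay in the GAMG human cell line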
Description: SANGER: Inhibition of human GAMG cell growth in a cell viability assay.

[15] = system: NCI-H596; test: cells; assay type: functional, cell-based; conditions: Homo sapiens;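 note: growth inhibition of NCI-H596 cells, read out with a cell viability assay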
Description: SANGER: Inhibition of human NCI-H596 cell growth in a cell viability assay.

[16] = system: PANC-08-13; test: cells; assay type: functional, cell-based; conditions: Homo sapiens
Description: SANGER: Inhibition of human PANC-08-13 cell growth in a cell viability assay.

[17] = system: RD; test: cells; assay type: functional, cell-based; conditions: Homo sapiens
Description: SANGER: Inhibition of human RD cell growth in a cell viability assay.

[18] = system: FaDu; test: cells; assay type: functional, cell-based; conditions: Homo sapiens;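 note: cell viability readout of growth inhibition in FaDu cells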
Description: SANGER: Inhibition of human FADU cell growth in a cell viability assay.

[19] = system: HCC1569; test: cells; assay type: functional, cell-based; conditions: Homo sapiens;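 note: growth inhibition of human HCC1569 cells, read out with a cell viability assay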
Description: SANGER: Inhibition of human HCC1569 cell growth in a cell viability assay.

[20] = system: NCI-H1792; test: cells; assay type: functional, cell-based; conditions: Homo sapiens;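 note: growth inhibition of human NCI-H1792 cells, read out as cell viability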
Description: SANGER: Inhibition of human NCI-H1792 cell growth in a cell viability assay.

[21] = system: SK-MEL-24; test: cells; assay type: functional, cell-based; conditions: Homo sapiens;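 note: growth inhibition read out by a cell viability assay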
Description: SANGER: Inhibition of human SK-MEL-24 cell growth in a cell viability assay.

[22] = system: PA-1; test: cells; assay type: functional, cell-based; conditions: Homo sapiens;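 note: IC50 for suppression of PA-1 cell proliferation, determined with a cell viability read-out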
Description: SANGER: Inhibition of human PA-1 cell growth in a cell viability assay.

[23] = system: C-33-A; test: cells; assay type: functional, cell-based; conditions: Homo sapiens;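 note: cell viability assay measuring growth inhibition of C-33-A cells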
Description: SANGER: Inhibition of human C-33-A cell growth in a cell viability assay.

[24] = system: KYSE-520 cell line; test: cells; assay type: functional, cell-based; conditions: Homo sapiens;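 note: growth inhibition of human KYSE-520 cells, read out with a viability assay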
Description: SANGER: Inhibition of human KYSE-520 cell growth in a cell viability assay.

[25] = system: NB14; test: cells; assay type: functional, cell-based, Homo sapiens; conditions: Homo sapiens, NB14;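 note: growth inhibition of NB14 cells measured with a cell viability assay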
Description: SANGER: Inhibition of human NB14 cell growth in a cell viability assay.

[26] = system: D-336MG; test: cells; assay type: functional, cell-based, Homo sapiens; conditions: Homo sapiens, D-336MG
Description: SANGER: Inhibition of human D-336MG cell growth in a cell viability assay.

[27] = system: P12-Ichikawa; test: cells; assay type: functional, cell-based; conditions: Homo sapiens
[28] = system: MDA-MB-361; test: cells; assay type: functional, cell-based; conditions: Homo sapiens
[29] = system: RPMI-7951; test: cells; assay type: functional, cell-based; conditions: Homo sapiens
Description: SANGER: Inhibition of human RPMI-7951 cell growth in a cell viability assay.

[30] = system: SAS; test: cells; assay type: functional, cell-based; conditions: Homo sapiens;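 note: growth inhibition of SAS cells, read out with a cell viability assay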
Description: SANGER: Inhibition of human SAS cell growth in a cell viability assay.

[31] = system: HCC1419; test: cells; assay type: functional, cell-based; conditions: Homo sapiens;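 note: growth inhibition of human HCC1419 cells, read out as cell viability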
Description: SANGER: Inhibition of human HCC1419 cell growth in a cell viability assay.

[32] = system: NCI-H630; test: cells; assay type: functional, cell-based; conditions: Homo sapiens;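 note: growth inhibition of NCI-H630 cells, read out with a cell viability assay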
Description: SANGER: Inhibition of human NCI-H630 cell growth in a cell viability assay.

[33] = system: OVCAR-5; test: cells; assay type: functional, cell-based; conditions: Homo sapiens;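 note: growth inhibition of human OVCAR-5 cells, read out with a cell viability assay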
Description: SANGER: Inhibition of human OVCAR-5 cell growth in a cell viability assay.

[34] = system: HEC-1; test: cells; assay type: functional, cell-based; conditions: Homo sapiens;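 note: growth inhibition of the cell line, read out with a cell viability assay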
Description: SANGER: Inhibition of human HEC-1 cell growth in a cell viability assay.

[35] = system: MDA-MB-231; test: cells; assay type: functional, cell-based; conditions: Homo sapiens
Description: SANGER: Inhibition of human MDA-MB-231 cell growth in a cell viability assay.

[36] = system: SAOS-2; test: cells; assay type: functional, cell-based; conditions: Homo sapiens;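 note: growth inhibition of human Saos-2 cells determined by a cell viability assay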
Description: SANGER: Inhibition of human Saos-2 cell growth in a cell viability assay.

[37] = system: SCC-9; test: cells; assay type: functional, cell-based; conditions: Homo sapiens;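 note: Read-out is a cell viability assay, with values giving inhibition of cell growth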
Description: SANGER: Inhibition of human SCC-9 cell growth in a cell viability assay.

[38] = system: KYSE-70 cell line; test: cells; assay type: functional, cell-based; conditions: Homo sapiens;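 note: cell viability assay read-out, with IC50 expressing suppression of KYSE-70 cell growth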
Description: SANGER: Inhibition of human KYSE-70 cell growth in a cell viability assay.

[39] = system: HuO9; test: cells; assay type: functional, cell-based; conditions: Homo sapiens;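 note: growth inhibition of HuO9 cells, read out with a cell viability assay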
Description: SANGER: Inhibition of human HuO9 cell growth in a cell viability assay.

[40] = system: SF-295; test: cells; assay type: functional, cell-based; conditions: Homo sapiens;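 note: growth inhibition of SF-295 cells, read out with a cell viability assay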
Description: SANGER: Inhibition of human SF295 cell growth in a cell viability assay.

[41] = system: PFSK-1; test: cells; assay type: functional, cell-based; conditions: Homo sapiens;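 note: cell viability assay measuring how strongly compounds suppress growth of human PFSK-1 cells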
Description: SANGER: Inhibition of human PFSK-1 cell growth in a cell viability assay.

[42] = system: S-117; test: cells; assay type: functional, cell-based; conditions: Homo sapiens
Description: SANGER: Inhibition of human S-117 cell growth in a cell viability assay.

[43] = system: HCC38; test: cells; assay type: functional, cell-based; conditions: Homo sapiens;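 note: cell viability assay on the human HCC38 cell line, with IC50 marking the concentration that inhibits cell growth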
Description: SANGER: Inhibition of human HCC38 cell growth in a cell viability assay.

[44] = system: CAKI-1; test: cells; assay type: functional, cell-based; conditions: Homo sapiens;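 note: growth inhibition of CAKI-1 cells, measured by a cell viability assay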
Description: SANGER: Inhibition of human CAKI-1 cell growth in a cell viability assay.

[45] = system: SCC-25; test: cells; assay type: functional, cell-based; conditions: Homo sapiens;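 note: growth inhibition of SCC-25 cells, measured with a cell viability assay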
Description: SANGER: Inhibition of human SCC-25 cell growth in a cell viability assay.

[46] = system: HCT-15; test: cells; assay type: functional, cell-based; conditions: Homo sapiens;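 note: cell viability readout, IC50 reflecting suppression of HCT-15 cell growth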
Description: SANGER: Inhibition of human HCT-15 cell growth in a cell viability assay.

[47] = system: CP66-MEL; test: cells; assay type: functional, cell-based; conditions: Homo sapiens;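 note: growth inhibition of CP66-MEL cells determined in a cell viability assay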
Description: SANGER: Inhibition of human CP66-MEL cell growth in a cell viability assay.

[48] = system: HSC-4; test: cells; assay type: functional, cell-based; conditions: Homo sapiens;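 note: growth inhibition of human HSC-4 cells, read out with a cell viability assay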
Description: SANGER: Inhibition of human HSC-4 cell growth in a cell viability assay.

[49] = system: RPMI 8402; test: SANGER: Inhibition of human RPMI-8402 cell growth in a cell viability assay.; assay type: functional, cell-based; conditions: Homo sapiens, RPMI 8402

With `O=C(NCCCNc1nc(Nc2cccc(NC(=O)N3CCCC3)c2)ncc1I)c1cccs1` [BX-795] the IC50 [1] was greater than 5000 nM, the IC50 [2] was 4820 nM and the IC50 [3] was 1570 nM. For the same molecule, the IC50 [4] was greater than 5000 nM, the IC50 [5] was greater than 5000 nM and the IC50 [6] was 1770 nM. For the same molecule, the IC50 [7] was 1140 nM, the IC50 [8] was 1920 nM and the IC50 [9] was greater than 5000 nM. It also gave an IC50 [10] of 3890 nM, an IC50 [11] greater than 5000 nM and an IC50 [12] greater than 5000 nM. It also gave an IC50 [13] of 4650 nM, an IC50 [14] of 2830 nM and an IC50 [15] greater than 5000 nM. The IC50 [16] was greater than 5000 nM, the IC50 [17] was greater than 5000 nM and the IC50 [18] was greater than 5000 nM. The IC50 [19] was greater than 5000 nM, the IC50 [20] was greater than 5000 nM and the IC50 [21] was greater than 5000 nM. For the same molecule, the IC50 [22] was 804 nM, the IC50 [23] was greater than 5000 nM and the IC50 [24] was greater than 5000 nM. The IC50 [25] was 1060 nM, the IC50 [26] was 4300 nM and the IC50 [27] was 1180 nM. The IC50 [28] was greater than 5000 nM, the IC50 [29] was 3190 nM and the IC50 [30] was greater than 5000 nM. The IC50 [31] was greater than 5000 nM, the IC50 [32] was greater than 5000 nM and the IC50 [33] was 2280 nM. It also gave an IC50 [34] of 4090 nM, an IC50 [35] greater than 5000 nM and an IC50 [36] of 4120 nM. It also gave an IC50 [37] greater than 5000 nM, an IC50 [38] greater than 5000 nM and an IC50 [39] of 2560 nM. For the same molecule, the IC50 [40] was 4180 nM, the IC50 [41] was greater than 5000 nM and the IC50 [42] was greater than 5000 nM. The IC50 [43] was greater than 5000 nM, the IC50 [44] was 2280 nM and the IC50 [45] was greater than 5000 nM.
`Cc1ccc(-n2nc(C(C)(C)C)cc2NC(=O)Nc2ccc(OCCN3CCOCC3)c3ccccc23)cc1` [DORAMAPIMOD] was tested, and the IC50 [1] was greater than 10000 nM, the IC50 [2] was greater than 10000 nM and the IC50 [3] was greater than 10000 nM. For the same molecule, the IC50 [4] was greater than 10000 nM, the IC50 [5] was greater than 10000 nM and the IC50 [6] was greater than 10000 nM. The IC50 [7] was greater than 10000 nM, the IC50 [8] was greater than 10000 nM and the IC50 [9] was greater than 10000 nM. It also gave an IC50 [10] greater than 10000 nM, an IC50 [11] greater than 10000 nM and an IC50 [12] greater than 10000 nM. The IC50 [13] was greater than 10000 nM, the IC50 [14] was greater than 10000 nM and the IC50 [46] was greater than 10000 nM. The IC50 [15] was greater than 10000 nM, the IC50 [16] was greater than 10000 nM and the IC50 [17] was greater than 10000 nM. The IC50 [18] was greater than 10000 nM, the IC50 [19] was greater than 10000 nM and the IC50 [20] was greater than 10000 nM. For the same molecule, the IC50 [21] was greater than 10000 nM, the IC50 [22] was greater than 10000 nM and the IC50 [23] was greater than 10000 nM. The IC50 [24] was greater than 10000 nM, the IC50 [25] was greater than 10000 nM and the IC50 [26] was greater than 10000 nM. The IC50 [27] was greater than 10000 nM, the IC50 [28] was greater than 10000 nM and the IC50 [29] was greater than 10000 nM. For the same molecule, the IC50 [30] was greater than 10000 nM, the IC50 [31] was greater than 10000 nM and the IC50 [32] was greater than 10000 nM. It also gave an IC50 [33] greater than 10000 nM, an IC50 [34] greater than 10000 nM and an IC50 [35] greater than 10000 nM. It also gave an IC50 [36] greater than 10000 nM, an IC50 [37] greater than 10000 nM and an IC50 [38] greater than 10000 nM. For the same molecule, the IC50 [39] was greater than 10000 nM, the IC50 [40] was greater than 10000 nM and the IC50 [41] was greater than 10000 nM. It also gave an IC50 [47] greater than 10000 nM, an IC50 [42] greater than 10000 nM and an IC50 [43] greater than 10000 nM. The IC50 [44] was greater than 10000 nM and the IC50 [45] was greater than 10000 nM.
`CO[C@@H]1[C@H](N(C)C(=O)c2ccccc2)C[C@H]2O[C@]1(C)n1c3ccccc3c3c4c(c5c6ccccc6n2c5c31)C(=O)NC4` [MIDOSTAURIN] was tested, and the IC50 [4] was greater than 512 nM, the IC50 [10] was 211 nM and the IC50 [11] was greater than 512 nM. The IC50 [46] was 334 nM, the IC50 [15] was greater than 512 nM and the IC50 [18] was greater than 512 nM. It also gave an IC50 [20] of 331 nM, an IC50 [48] greater than 512 nM and an IC50 [32] greater than 512 nM. The IC50 [33] was greater than 512 nM, the IC50 [49] was greater than 512 nM and the IC50 [34] was greater than 512 nM. It also gave an IC50 [40] of 273 nM.
`CC1(C)CCC(c2ccc(Cl)cc2)=C(CN2CCN(c3ccc(C(=O)NS(=O)(=O)c4ccc(N[C@H](CCN5CCOCC5)CSc5ccccc5)c(S(=O)(=O)C(F)(F)F)c4)cc3)CC2)C1` [NAVITOCLAX] gave an IC50 [1] greater than 2000 nM, an IC50 [2] of 1670 nM and an IC50 [3] greater than 2000 nM. For the same molecule, the IC50 [4] was greater than 2000 nM, the IC50 [5] was greater than 2000 nM and the IC50 [6] was greater than 2000 nM. It also gave an IC50 [7] greater than 2000 nM, an IC50 [8] greater than 2000 nM and an IC50 [9] greater than 2000 nM. The IC50 [10] was 1160 nM, the IC50 [11] was greater than 2000 nM and the IC50 [12] was greater than 2000 nM. The IC50 [13] was greater than 2000 nM, the IC50 [14] was greater than 2000 nM and the IC50 [15] was greater than 2000 nM. It also gave an IC50 [16] greater than 2000 nM, an IC50 [17] of 759 nM and an IC50 [18] greater than 2000 nM. For the same molecule, the IC50 [19] was 251 nM, the IC50 [20] was greater than 2000 nM and the IC50 [21] was greater than 2000 nM. It also gave an IC50 [22] of 956 nM, an IC50 [23] greater than 2000 nM and an IC50 [24] greater than 2000 nM. The IC50 [25] was 1140 nM, the IC50 [26] was greater than 2000 nM and the IC50 [27] was 77.8 nM. For the same molecule, the IC50 [28] was greater than 2000 nM, the IC50 [29] was greater than 2000 nM and the IC50 [30] was greater than 2000 nM. For the same molecule, the IC50 [31] was greater than 2000 nM, the IC50 [32] was greater than 2000 nM and the IC50 [33] was greater than 2000 nM. For the same molecule, the IC50 [34] was greater than 2000 nM, the IC50 [35] was greater than 2000 nM and the IC50 [36] was greater than 2000 nM. The IC50 [37] was greater than 2000 nM, the IC50 [38] was greater than 2000 nM and the IC50 [39] was 267 nM. The IC50 [40] was greater than 2000 nM, the IC50 [41] was greater than 2000 nM and the IC50 [42] was greater than 2000 nM. The IC50 [43] was 802 nM, the IC50 [44] was greater than 2000 nM and the IC50 [45] was greater than 2000 nM.
